Columns and labels:
[1] = target: HLA-A2 (Homo sapiens, UniProt P04439, D140Y/D185E/D98H/E176V/E277Q/G131W/G231S/I119V/I121R/I166T/I218V/N151K/N90K/P208A/P217A/Q86G/Q94H/R138H/R169H); details: binding at pH 6.5 at 4° C. overnight, FIG. 10A/10B
Protocol: Binding was performed at pH 6.5 at 4° C. overnight.

[2] = test system: ESK1 antibody; assay: ESK1 antibody binding specificity to peptide-MHC assemblies for WT1 9mer peptides; details: FIG. 7
Text: Because the array of peptides on the surface is spatially-ordered, the sequence of every peptide is immediately known. Each amino acid of the 9 amino acid peptide was substituted for each of the 20 possible amino acids to identify those positions within this peptide that are essential for forming a proper peptide-MHCI complex. […] The amino acids A, F, I, L, M, V, W and P are nonpolar amino acids. The amino acids G, S, Y, C, Q, T, N are polar amino acids. The amino acids R, K and H are basic amino acids. The amino acids D and E are acidic amino acids.

Sequence | peptide-MHC assembly signal, negatively charged HEX-asp-3HEX linker versus standard 5HEX linker [1] | ESK1 antibody binding specificity (relative fluorescence intensity) [2]
RLYDYFTRV | increase in the peptide-MHC assembly signal | 
RVPGVAPTL |  | cross-reactive target

— US11583575B2, “MHC-bound peptide arrays and methods of use thereof” (Roche Sequencing Solutions, Inc., priority 2016, dated 2023)
